# Values quoted from earlier work, collected in US7781400B2, “Pharmaceutical compositions comprising dextran with a molecular weight of 1.0-100 KDA and processes for their preparation” (BOWS Pharmaceuticals AG, priority 2006, dated 2010).
# Details: in vivo
substance,measurement,value
polyglycolide,adverse tissue response rates,up to 47%
